# Source: patent publication US9109004B2, “Progesterone receptor antagonists” (Bayer Intellectual Property GmbH, priority 2010, dated 2015)
# Molecular target: T1, human progesterone receptor A (Homo sapiens, UniProt P06401)
# T1 construct: expressed in transfected cells; host or cells: SK-N-MC human neuroblastoma cells, stably transfected
# T1 sequence (P06401 1-769 isoform P06401-2): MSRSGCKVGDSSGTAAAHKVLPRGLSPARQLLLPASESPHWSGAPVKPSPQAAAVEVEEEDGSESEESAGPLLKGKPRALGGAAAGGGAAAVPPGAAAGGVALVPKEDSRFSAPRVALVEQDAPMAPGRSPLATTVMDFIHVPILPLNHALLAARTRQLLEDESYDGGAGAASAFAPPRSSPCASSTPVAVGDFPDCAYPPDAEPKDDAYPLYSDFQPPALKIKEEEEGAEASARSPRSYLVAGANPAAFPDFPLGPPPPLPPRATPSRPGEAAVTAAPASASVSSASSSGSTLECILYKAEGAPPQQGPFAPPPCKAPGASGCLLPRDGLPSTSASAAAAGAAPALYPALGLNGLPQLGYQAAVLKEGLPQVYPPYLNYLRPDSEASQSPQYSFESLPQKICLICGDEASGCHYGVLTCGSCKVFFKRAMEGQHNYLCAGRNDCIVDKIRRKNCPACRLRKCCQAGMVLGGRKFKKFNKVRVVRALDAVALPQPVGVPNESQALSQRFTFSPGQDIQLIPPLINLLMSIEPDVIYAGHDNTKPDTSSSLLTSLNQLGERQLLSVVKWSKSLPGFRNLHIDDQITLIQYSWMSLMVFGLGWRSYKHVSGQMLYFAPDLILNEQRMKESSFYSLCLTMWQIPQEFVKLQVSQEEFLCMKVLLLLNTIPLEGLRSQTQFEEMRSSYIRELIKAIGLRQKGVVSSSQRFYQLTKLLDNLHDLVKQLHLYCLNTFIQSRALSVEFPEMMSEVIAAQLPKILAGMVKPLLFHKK
# Assay: Progesterone-receptor-antagonistic action in stably transfected SK-N-MC cells, MTV-LUC reporter (PR-A)
# Type: cell-based
# Conditions: antagonistic potency vs 0.1 nmol/l promegestone, 24 hours, luciferase
# Description: Progesterone-Receptor-Antagonistic Action in Stable Transfectants of Human Neuroblastoma Cells (SK-N-MC Cells) with the Human Progesterone A or Progesterone B Receptor and an MTV-LUC Reporter Construct
# SK-N-MC cells (human neuroblastoma cells) that have been stably transfected with plasmids that express the human progesterone receptor B (pRChPR-B-neo) or the human progesterone receptor A (pRChPR-A-neo) and a reporter construct (pMMTV-LUC), were incubated for 24 hours either in the absence (negative control) or in the presence of increasing amounts of the particular test compound (0.01 nmol/l, 0.1 nmol/l, 1 nmol/l, 10 nmol/l, 100 nmol/l and 1 μmol/l), to determine the agonistic efficacy. As positive control of reporter gene induction, the cells were treated with the synthetic gestagen promegestone (0.01 nmol/l, 0.1 nmol/l, 1 nmol/l, 10 nmol/l, 100 nmol/l and 1 μmol/l). For determination of the antagonistic activity, the cells were treated with 0.1 nmol/l promegestone and additionally with increasing amounts of the particular test compound (0.01 nmol/l, 0.1 nmol/l, 1 nmol/l, 10 nmol/l, 100 nmol/l and 1 μmol/l). The activity of the reporter gene LUC (LUC=luciferase) was determined in the cell lysates and was measured as RLU (relative light units). All measured values are given as % efficacy and as EC50 or IC50 concentrations.
row,SMILES,IC50
1,"C[C@]12C[C@H](c3ccc(C(=O)Nc4cccc(C(=O)O)c4)cc3)C3=C4CCC(=O)C=C4CC[C@H]3[C@@H]1CC[C@@]2(O)C(F)(F)C(F)(F)F [Example 77, 3-({4-[(11β,17β)-17-Hydroxy-3-oxo-17-(pentafluoroethyl)estra-4,9-dien-11-yl]benzoyl}amino)benzoic acid]",140 nM
2,"C[C@]12C[C@H](c3ccc(C(=O)Nc4ccccc4)cc3)C3=C4CCC(=O)C=C4CC[C@H]3[C@@H]1CC[C@@]2(O)C(F)(F)C(F)(F)F [Example 22, 4-[(11β,17β)-17-hydroxy-3-oxo-17-(pentafluoroethyl)estra-4,9-dien-11-yl]-N-phenylbenzamide]",39 nM
3,"CNC(=O)CN1CCN(C(=O)c2ccc([C@H]3C[C@@]4(C)[C@@H](CC[C@@]4(O)C(F)(F)C(F)(F)F)[C@@H]4CCC5=CC(=O)CCC5=C43)cc2)CC1 [Example 71, 2-(4-{4-[(11β,17β)-17-hydroxy-3-oxo-17-(pentafluoroethyl)estra-4,9-dien-11-yl]benzoyl}piperazin-1-yl)-N-methylacetamide]",38 nM
4,"CN(C(=O)c1ccc([C@H]2C[C@@]3(C)[C@@H](CC[C@@]3(O)C(F)(F)C(F)(F)F)[C@@H]3CCC4=CC(=O)CCC4=C32)cc1)c1ccccc1 [Example 28, 4-[(11β,17β)-17-hydroxy-3-oxo-17-(pentafluoroethyl)estra-4,9-dien-11-yl]-N-methyl-N-phenylbenzamide]",63 nM
5,"CN(CCc1ccccn1)C(=O)c1ccc([C@H]2C[C@@]3(C)[C@@H](CC[C@@]3(O)C(F)(F)C(F)(F)F)[C@@H]3CCC4=CC(=O)CCC4=C32)cc1 [Example 50, 4-[(11β,17β)-17-hydroxy-3-oxo-17-(pentafluoroethyl)estra-4,9-dien-11-yl]-N-methyl-N-[2-(pyridin-2-yl)ethyl]benzamide]",15.7 nM

# Now those with a lower IC50, led by results:
row,IC50,SMILES
1,11.4 nM,"COc1ccc(NC(=O)c2ccc([C@H]3C[C@@]4(C)[C@@H](CC[C@@]4(O)C(F)(F)C(F)(F)F)[C@@H]4CCC5=CC(=O)CCC5=C43)cc2)cc1 [Example 25, 4-[(11β,17β)-17-hydroxy-3-oxo-17-(pentafluoroethyl)estra-4,9-dien-11-yl]-N-(4-methoxyphenyl)benzamide]"
2,4.7 nM,"C[C@]12C[C@H](c3ccc(C(=O)Nc4ccc(C(N)=O)cc4)cc3)C3=C4CCC(=O)C=C4CC[C@H]3[C@@H]1CC[C@@]2(O)C(F)(F)C(F)(F)F [Example 41, N-(4-carbamoylphenyl)-4-[(11β,17β)-17-hydroxy-3-oxo-17-(pentafluoroethyl)estra-4,9-dien-11-yl]benzamide]"
3,3.8 nM,"C[C@]12C[C@H](c3ccc(C(=O)NCc4ccccn4)cc3)C3=C4CCC(=O)C=C4CC[C@H]3[C@@H]1CC[C@@]2(O)C(F)(F)C(F)(F)F [Example 20, 4-[(11β,17β)-17-hydroxy-3-oxo-17-(pentafluoroethyl)estra-4,9-dien-11-yl]-N-(pyridin-2-ylmethyl)benzamide]"
4,1.7 nM,"COC(=O)N1CCN(C(=O)c2ccc([C@H]3C[C@@]4(C)[C@@H](CC[C@@]4(O)C(F)(F)C(F)(F)F)[C@@H]4CCC5=CC(=O)CCC5=C43)cc2)CC1 [Example 70, methyl-4-{4-[(11β,17β)-17-hydroxy-3-oxo-17-(pentafluoroethyl)estra-4,9-dien-11-yl]benzoyl}piperazine-1-carboxylate]"
5,1.1 nM,"C[C@]12C[C@H](c3ccc(C(=O)NCCc4ccncc4)cc3)C3=C4CCC(=O)C=C4CC[C@H]3[C@@H]1CC[C@@]2(O)C(F)(F)C(F)(F)F [Example 64, 4-[(11β,17β)-17-hydroxy-3-oxo-17-(pentafluoroethyl)estra-4,9-dien-11-yl]-N-[2-(pyridin-4-yl)ethyl]benzamide]"
6,0.42 nM,"C[C@]12C[C@H](c3ccc(C(=O)Nc4ccncc4)cc3)C3=C4CCC(=O)C=C4CC[C@H]3[C@@H]1CC[C@@]2(O)C(F)(F)C(F)(F)F [Example 14, 4-[(11β,17β)-17-hydroxy-3-oxo-17-(pentafluoroethyl)estra-4,9-dien-11-yl]-N-(pyridin-4-yl)benzamide]"
